IC50 data for five molecules are collected here from patent publication US5698691A, “Condensed cyclic compounds and their use” (Takeda Chemical Industries, Ltd., priority 1993, dated 1997).

Assay [1] addresses T1, squalene synthetase (Rattus norvegicus, UniProt Q02769).
T1 construct: from tissue; host or cells: rat liver microsome fraction (SD male rat, 6 weeks old)
T1 sequence (Q02769 1-416): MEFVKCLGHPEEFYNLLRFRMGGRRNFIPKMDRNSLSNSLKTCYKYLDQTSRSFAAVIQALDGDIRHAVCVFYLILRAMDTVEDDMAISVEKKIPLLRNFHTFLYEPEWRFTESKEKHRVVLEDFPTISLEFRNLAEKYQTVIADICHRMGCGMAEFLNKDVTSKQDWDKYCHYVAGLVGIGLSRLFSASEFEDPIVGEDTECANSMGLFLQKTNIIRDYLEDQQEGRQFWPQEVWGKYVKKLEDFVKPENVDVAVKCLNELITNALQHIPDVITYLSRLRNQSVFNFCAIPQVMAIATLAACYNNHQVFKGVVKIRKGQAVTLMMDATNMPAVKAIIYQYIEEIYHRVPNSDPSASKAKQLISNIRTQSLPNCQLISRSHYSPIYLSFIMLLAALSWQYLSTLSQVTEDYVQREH
Description: Squalene synthetase inhibitory activity, rat-derived enzyme (liver microsome fraction). The format is biochemical. As to conditions: SD rat liver microsome fraction; 5 uM [1-3H] farnesyl pyrophosphate, 37° C., 45 minutes. Here is the method: (§1) Assay Method of Squalene Synthetase Inhibitory Activity
(§2) The squalene synthetase inhibitory activity was assayed as follows with the enzyme solutions described in the subsequent Experimental Examples 1 and 2.
(§3) More specifically, an enzyme solution (protein content 0.8 ug) prepared in Experimental Example 1 or 2 was added to a solution (total volume 50 μl)) containing 5 uM [1-^3 H] farnesyl pyrophosphate (specific activity 25 uCi/mole), 1 mM NADPH, 5 mM MgCl2, 6 mM glutathione, a 100 mM buffer solution of potassium phosphate (pH 7.4) and a test drug (used as an aqueous solution or a DMSO solution), then the reaction was allowed to proceed at 37° C. for 45 minutes. To the reaction mixture was added 150 μl of a mixture of chloroform and methanol (1:2) to suspend the reaction, followed by adding 50 μl of chloroform and 50 μl of a 3N aqueous solution of sodium hydroxide. 50 μl of the chloroform layer (lower layer) containing the reaction mixture having squalene as the principal component and 3 ml of toluene-based liquid scintillator were mixed, and its radioactivity was determined by means of a liquid scintillation counter.
(§4) The squalene synthetase inhibitory activity was expressed in terms of the concentration inhibiting by 50% the radioactivity taken into the chloroform layer (IC50, molar concentration (M)).
An SD male rat (6 week old) was killed by bleeding, and its liver was excised. About 10 g of the liver was washed with a saline solution cooled with ice, which was then homogenized in 15 ml of an ice-cooled buffer solution [100 mM potassium phosphate (pH 7.4), 15 mM nicotinamide, 2 mM MgCl2 ], followed by centrifugation for 20 minutes (4° C.) with 10000×g. The supernatant layer was separated and subjected to further centrifugation for 90 minutes (4° C.) at 105000×g. The sediment was then suspended in an ice-cooled 100 mM phosphate buffer solution (pH 7.4), which was again subjected to centrifugation for 90 minutes (4° C.) at 105000×g. The sediment thus obtained (microsome fraction) was suspended in an ice-cooled 100 mM potassium phosphate buffer (pH 7.4) (about 40 mg/ml protein concentration, determined with BCA protein assay kit of Pias Co., Ltd.). This suspension was used as the enzyme solution.

Assay [2] addresses T2, squalene synthetase (Homo sapiens, UniProt P37268).
T2 construct: endogenous in cells; host or cells: HepG2 (human hepatic carcinoma) cells, microsome fraction
T2 sequence (P37268 1-417): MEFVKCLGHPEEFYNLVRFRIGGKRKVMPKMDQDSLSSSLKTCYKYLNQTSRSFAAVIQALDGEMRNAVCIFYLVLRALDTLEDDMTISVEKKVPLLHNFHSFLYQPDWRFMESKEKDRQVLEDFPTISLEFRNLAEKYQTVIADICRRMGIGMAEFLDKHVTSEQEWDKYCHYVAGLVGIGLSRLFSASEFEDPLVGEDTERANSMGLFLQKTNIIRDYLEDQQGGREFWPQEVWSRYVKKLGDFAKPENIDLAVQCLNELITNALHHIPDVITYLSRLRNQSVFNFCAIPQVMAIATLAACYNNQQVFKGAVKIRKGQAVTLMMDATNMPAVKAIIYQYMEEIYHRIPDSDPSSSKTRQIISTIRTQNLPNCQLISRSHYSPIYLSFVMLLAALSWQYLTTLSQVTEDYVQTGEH
Description: Squalene synthetase inhibitory activity, human-derived enzyme (HepG2 microsome fraction). As to conditions: 5 uM [1-3H] farnesyl pyrophosphate, 37° C., 45 minutes. The format is biochemical. The method, then:
as §1, §2, §3, §4
Human hepatic carcinoma cells HepG2 (about 1×10^9 cells) obtained by incubation in a Dulbecco-modified Eagle's medium (37° C. in the presence of 5% CO2) were suspended in 10 ml of an ice-cooled buffer solution [100 mM potassium phosphate buffer (pH 7.4), 30 mM nicotinamide and 2.5 mM MgCl2 ]. The cells were crashed by means of ultrasonication (for 30 seconds, twice). From the sonicate thus obtained, the microsome fraction was obtained by the same procedure as in Experiment Example 1, which was suspended in an ice-cooled 100 mM potassium phosphate buffer (pH 7.4) (about 4 mg/ml protein concentration). This suspension was used as the enzyme solution. The results are shown in [Table 4].

One may read the IC50 as the point on the concentration scale where inhibition reaches its midpoint. Higher therefore signals lower potency. On to `CC(C)(C)CN1C(=O)[C@@H](CC(=O)O)S[C@H](c2ccccc2Cl)c2cc(Cl)ccc21` (relative stereo) [Example 9, 3,5-trans-7-Chloro-5-(2-chlorophenyl)-1-neopentyl-2-oxo-1,2,3,5-tetrahydro-4,1-benzothiazepine-3-acetic acid], for which the IC50 is 180 nM against squalene synthetase [1] and 39 nM on squalene synthetase [2].

Turning to `COc1cccc([C@H]2S[C@H](Cc3nnn[nH]3)C(=O)N(CC(C)(C)C)c3ccc(Cl)cc32)c1OC` [Example 59, (3R,5S)-7-Chloro-5-(2,3-dimethoxyphenyl)-1-neopentyl-3-(tetrazol-5-yl)methyl-1,2,3,5-tetrahydro-4,1-benzothaizepin-2-one], the IC50 at squalene synthetase [1] amounted to 16 nM; at squalene synthetase [2], 10 nM.

Turning to `COc1ccccc1C1SC(CC(=O)O)C(=O)N(CC(C)(C)C)c2ccc(Cl)cc21` (stereo not drawn) [Example 10-8, 3,5-trans-7-Chloro-5-(2-methoxyphenyl)-1-neopentyl-2-oxo-1,2,3,5-tetrahydro-4,1-benzothiazepine-3-acetic acid], the IC50 against squalene synthetase [1] was 23 nM; against squalene synthetase [2], 13 nM.

Consider `CC(C)(C)CN1C(=O)[C@@H](CC(=O)NCC(=O)O)S[C@H](c2ccccc2Cl)c2cc(Cl)ccc21` (relative stereo) [Example 23, N-[3,5-trans-7-Chloro-5-(2-chlorophenyl)-1-neopentyl-2-oxo-1,2,3,5-tetrahydro-4,1-benzothiazepine-3-acetyl]glycine], for which the IC50 against squalene synthetase [1] was found to be 22 nM; against squalene synthetase [2], 13 nM.

On to `COc1cccc([C@H]2S[C@H](CC(=O)O)C(=O)N(CC(C)(C)C)c3ccc(Cl)cc32)c1OC` [Example 43, (3R,5S)-7-Chloro-5-(2,3-dimethoxyphenyl)-1-neopentyl-2-oxo-1,2,3,5-tetrahydro-4,1-benzothiazepine-3-acetic acid], for which the half-inhibitory concentration (IC50) was found to be 9.3 nM against squalene synthetase [1] and 5.9 nM at squalene synthetase [2].
